{"source": "the supplement of paper PMC10307832", "data": [{"compound": "CC1(C)CNc2cc(NC(=O)c3cccnc3NCc3ccncc3)ccc21 [Motesanib] + CCNC(=O)c1noc(-c2cc(C(C)C)c(O)cc2O)c1-c1ccc(CN2CCOCC2)cc1 [Luminespib] (partner 0.01 µM)", "assay": "relative viability (nuclei count vs DMSO), 5 days (fraction); higher = more cells survive", "details": "first compound 0.3162 µM", "how_it_was_run": "(§1)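 One day after seeding in 1536-well plates, lung cancer cell lines were dosed by pin tool. Dosing was either single-drug or a fixed anchor-drug dose plus five library-drug doses (not always all listed) in √10 steps. After 5 days, nuclei were stained in one fix-and-stain step and counted on 4× images, and relative viability is the nuclei count of treated wells over that of vehicle wells, given as the median of duplicate plates.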", "values": [{"cell line": "NCI-H838", "relative viability": 0.286}, {"cell line": "LCLC-103H", "relative viability": 1.04}, {"cell line": "NCI-H520", "relative viability": 0.196}, {"cell line": "NCI-H2126", "relative viability": 0.933}, {"cell line": "EMC-BAC-2", "relative viability": 1.16}, {"cell line": "NCI-H2085", "relative viability": 0.438}, {"cell line": "NCI-H1666", "relative viability": 0.999}, {"cell line": "NCI-H596", "relative viability": 0.988}, {"cell line": "LK-2", "relative viability": 0.189}, {"cell line": "NCI-H2087", "relative viability": 0.149}, {"cell line": "SK-MES-1", "relative viability": 0.785}, {"cell line": "H3255", "relative viability": 1.06}, {"cell line": "COR-L23", "relative viability": 0.665}, {"cell line": "COR-L 105", "relative viability": 0.73}, {"cell line": "LOU-NH91", "relative viability": 0.379}, {"cell line": "ChaGo-K-1", "relative viability": 0.552}, {"cell line": "NCI-H2170", "relative viability": 0.734}, {"cell line": "NCI-H2405", "relative viability": 0.689}, {"cell line": "HOP-62", "relative viability": 0.853}, {"cell line": "HCC-44", "relative viability": 1.24}, {"cell line": "NCI-H522", "relative viability": 1.18}, {"cell line": "LU99A", "relative viability": 0.243}, {"cell line": "BEN", "relative viability": 0.498}, {"cell line": "HARA", "relative viability": 0.871}, {"cell line": "SW 900", "relative viability": 0.168}, {"cell line": "NCI-H322M", "relative viability": 0.842}, {"cell line": "NCI-H1792", "relative viability": 0.501}, {"cell line": "NCI-H1563", "relative viability": 0.542}]}, {"compound": "CC1(C)CNc2cc(NC(=O)c3cccnc3NCc3ccncc3)ccc21 [Motesanib] + CCNC(=O)c1noc(-c2cc(C(C)C)c(O)cc2O)c1-c1ccc(CN2CCOCC2)cc1 [Luminespib] (partner 0.01 µM)", "assay": "relative viability (nuclei count vs DMSO), 5 days (fraction); higher = more cells survive", "details": "first compound 1 µM", "how_it_was_run": "as §1", "values": [{"cell line": "NCI-H2342", "relative viability": 0.841}, {"cell line": "NCI-H1623", "relative viability": 0.515}, {"cell line": "NCI-H727", "relative viability": 0.352}, {"cell line": "NCI-H1650", "relative viability": 0.2}, {"cell line": "NCI-H1993", "relative viability": 0.932}, {"cell line": "SW 1573", "relative viability": 0.335}, {"cell line": "NCI-H838", "relative viability": 0.216}, {"cell line": "LCLC-103H", "relative viability": 0.98}, {"cell line": "NCI-H520", "relative viability": 0.242}, {"cell line": "NCI-H2126", "relative viability": 0.961}, {"cell line": "EMC-BAC-2", "relative viability": 1.05}, {"cell line": "NCI-H2085", "relative viability": 0.462}, {"cell line": "NCI-H1666", "relative viability": 0.977}, {"cell line": "NCI-H596", "relative viability": 0.871}, {"cell line": "LK-2", "relative viability": 0.192}, {"cell line": "NCI-H2087", "relative viability": 0.145}, {"cell line": "SK-MES-1", "relative viability": 0.721}, {"cell line": "H3255", "relative viability": 0.902}, {"cell line": "COR-L23", "relative viability": 0.738}, {"cell line": "COR-L 105", "relative viability": 0.843}, {"cell line": "LOU-NH91", "relative viability": 0.393}, {"cell line": "ChaGo-K-1", "relative viability": 0.588}, {"cell line": "NCI-H2170", "relative viability": 0.645}, {"cell line": "NCI-H2405", "relative viability": 0.813}, {"cell line": "HOP-62", "relative viability": 0.935}, {"cell line": "HCC-44", "relative viability": 1.2}, {"cell line": "NCI-H522", "relative viability": 1.1}, {"cell line": "LU99A", "relative viability": 0.25}, {"cell line": "BEN", "relative viability": 0.387}, {"cell line": "HARA", "relative viability": 0.612}, {"cell line": "SW 900", "relative viability": 0.167}, {"cell line": "NCI-H322M", "relative viability": 0.949}, {"cell line": "NCI-H1792", "relative viability": 0.466}, {"cell line": "NCI-H1563", "relative viability": 0.487}]}, {"compound": "CC1(C)CNc2cc(NC(=O)c3cccnc3NCc3ccncc3)ccc21 [Motesanib] + O=C(CCCCCCC(=O)Nc1ccccc1)NO [Vorinostat] (partner 1 µM)", "assay": "relative viability (nuclei count vs DMSO), 5 days (fraction); higher = more cells survive", "details": "first compound 0.01 µM", "how_it_was_run": "as §1", "values": [{"cell line": "NCI-H2342", "relative viability": 0.702}, {"cell line": "NCI-H727", "relative viability": 1.12}, {"cell line": "NCI-H1650", "relative viability": 0.642}, {"cell line": "NCI-H1993", "relative viability": 0.63}, {"cell line": "SW 1573", "relative viability": 0.77}, {"cell line": "NCI-H838", "relative viability": 0.735}, {"cell line": "LCLC-103H", "relative viability": 0.756}, {"cell line": "NCI-H520", "relative viability": 0.664}, {"cell line": "NCI-H2126", "relative viability": 0.858}, {"cell line": "EMC-BAC-2", "relative viability": 0.408}, {"cell line": "NCI-H2085", "relative viability": 0.825}, {"cell line": "HCC-366", "relative viability": 0.382}, {"cell line": "NCI-H1666", "relative viability": 0.926}, {"cell line": "NCI-H596", "relative viability": 0.586}, {"cell line": "LK-2", "relative viability": 0.271}, {"cell line": "NCI-H1648", "relative viability": 0.314}, {"cell line": "SK-MES-1", "relative viability": 1.13}, {"cell line": "H3255", "relative viability": 0.694}, {"cell line": "COR-L23", "relative viability": 0.45}]}]}
